The test system of test [1] is human STING pathway (THP1-ISG cells). Briefly: STING human cell reporter assay. The conditions noted are these: Homo sapiens, IRF-inducible SEAP reporter, 24 h, means of at least three values. Format: cell-based. The protocol: Agonism of the human STING pathway is assessed in THP1-ISG cells (Invivogen, cat #thp-isg) derived from human THP1 monocyte cell line by stable integration of an interferon regulatory factor (IRF)-inducible SEAP reporter construct. THP1-Blue ISG cells express a secreted embryonic alkaline phosphatase (SEAP) reporter gene under the control of an ISG54 minimal promoter in conjunction with five interferon (IFN)-stimulated response elements. As a result, THP1-Blue ISG cells allow the monitoring of IRF activation by determining the activity of SEAP. The levels of IRF-induced SEAP in the cell culture supernatant are readily assessed with alkaline phosphatase detection medium, a SEAP detection reagent. These cells are resistant to Zeocin. 2′3′cGAMP was used as a positive control in this assay. To run the assay, 60,000 cells were dispensed in 30 μL/well of a white, opaque bottom tissue culture treated 384-well plate.
Test compounds were added in a volume of 10 μL (1% DMSO final concentration). Compounds are initially prepared in 100% DMSO, spotted on an compound dilution plate and then diluted in media prior to transfer. The assay was incubated for 24 h at 37° C., 5% CO2 then plates were centrifuged at 1200 rpm (120×g) for 5 min. After final incubation, 90 μL of alkaline phosphatase detection medium-substrate was added to each well of a new 384-well clear plate and 10 μL of the cell supernatant was transferred from the assay plate to the new alkaline phosphatase detection medium-plate using a Biomek FX and mixed 4 times. Plates were incubated at RT for 20 min then absorbance at 655 nm was determined on the Tecan Safire2.
Background: In a reporter assay the amount or activity of a reporter protein is the signal.

Test [2] deals with T1, human STING (E. coli produced truncated STING protein) (Homo sapiens, UniProt Q86WV6, H232R).
T1 construct: contains residues 139-379 of Q86WV6 with an R at position 232 (H232R); HIS tag (N, cleaved yes); made in house; host or cells: E. coli
The experiment in a line: STING SPR binding assay. The conditions noted are these: steady state affinity, 1:1 binding model, 25° C. How it is done: Compounds were analyzed on an S200 biacore SPR instrument (GE Healthcare). E. coli produced truncated STING protein was immobilized on a series S streptavidin chip via biotin capture (GE Healthcare #BR100531) with. […] Steady state affinity and kinetic evaluations were carried out using 1:1 binding model (STING was treated as a dimer). Run parameters were as follows: 60 sec on, 300 sec off for the IFM compounds, cyclic-di-GMP (60 sec on/60 sec off), thiol isomer 1 (60 sec on/300 sec off) and cGAMP (60 sec on/1200 sec off) with a flow rate of 50 μL/min and data collection at 40 Hz at 25° C.

Test [3] has as its system THP1-Blue ISG cells (IFN-β secretion). The experiment in a line: Human interferon-β induction assay. The test is classed as cell-based. The conditions noted are these: total cumulative IFN-β induction over the dose range tested (0.78 to 50 uM) in THP-1 cells after a 24 hour exposure. How it is done:
THP1-Blue ISG cells are used to measure the secretion of IFN-β into the culture supernatant following STING pathway activation. To run the assay, anti-IFN-β capture antibodies were coated on […] well MultiArray plates (Mesoscale Discovery). After a one hour incubation, plates were washed and 50 μL supernatant from the STING human cell reporter assay plates or IFN-β standards were mixed with 20 μL Sulfotag-conjugated detection antibody in the coated plates. Plates were incubated, shaking for 2 h, washed, and read buffer was applied. Electrochemiluminescence was measured on the SectorImager.

For test [4], the system named is CT26 colon carcinoma tumor. Briefly: STING in vivo activity, mouse CT26 tumor model. The conditions noted are these: 0.05 mg intratumorally every three days, three doses, 8 mice per group; for In vivo activity (% TGI): CT26 tumors in Balb/c mice. How it is done:
For all studies, female Balb/c mice were obtained from Charles River Labs (Wilmington, Mass.) and used when they were 6-8 weeks of age and weighed approximately 20 g. All animals were allowed to acclimate and recover from any shipping-related stress for a minimum of 5 days prior to experimental use. Reverse osmosis chlorinated water and irradiated food (Laboratory Autoclavable Rodent Diet 5010, Lab Diet) were provided ad libitum, and the animals were maintained on a 12 h light and dark cycle. Cages and bedding were autoclaved before use and changed weekly. All experiments were carried out in accordance with The Guide for the Care and Use of Laboratory Animals and were approved by the Institutional Animal Care and Use Committee of Janssen R & D, Spring House, Pa. Each experimental group contained 8 mice. In vivo efficacy in a mouse CT26 tumor model was determined by implanting 500,000 CT26 colon carcinoma tumor cells subcutaneously into Balb/c mice and allowing tumors to establish to 100-300 mm^3. Compounds were injected intratumorally formulated in phosphate buffered saline in a volume of 0.1 mL Per injection. Mice were administered 0.05 mg every three days for a total of three doses. Efficacy was measured as the percent tumor growth inhibition (TGI) calculated by the reduction in size of the Treated tumor volume (T) over the Control tumor volume (C) according to the following formula. ((C−T)/(C))*100 when all control animals were still on study. Cures were defined as the number of animals with no measurable tumor detected 10 tumor volume doubling times (TVDT) after the last dose was administered.

Test [5] deals with human STING (biotinylated STING protein, residues 139-379 of Q86WV6, H232R) (Homo sapiens, UniProt Q86WV6, H232R). Briefly: STING SPA binding assay.
Procedure: The HIS tag is cleaved after purification and prior to biotinylation.
Test compounds (80 nL) were added with an acoustic dispenser (EDC Biosystems) in 100% DMSO for a final assay concentration of 1% DMSO. Plates were centrifuged for 1 min and incubated for 60 min at room temperature. […] Plates were dark adapted for 2 h and read on a ViewLux (Perkin Elmer) for 12 min per plate.

Molecules are shown by their SMILES. pEC50, pIC50, pKd: −log10 of the molar value.

T1 sequence (Q86WV6 139-379 H232R): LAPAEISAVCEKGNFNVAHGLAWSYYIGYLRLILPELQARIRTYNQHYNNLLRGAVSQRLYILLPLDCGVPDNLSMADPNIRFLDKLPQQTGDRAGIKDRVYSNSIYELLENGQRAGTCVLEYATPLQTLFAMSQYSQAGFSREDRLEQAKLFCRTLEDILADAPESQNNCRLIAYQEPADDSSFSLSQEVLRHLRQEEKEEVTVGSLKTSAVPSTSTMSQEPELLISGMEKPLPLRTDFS
Sequence of human STING (biotinylated STING protein, residues 139-379 of Q86WV6, H232R) (Q86WV6 139-379 H232R, one chain of several): as the sequence (Q86WV6 139-379 H232R) above

The term pEC50 denotes the negative decadic logarithm of the EC50, by convention in mol/L. As usually defined, the pKd is the Kd on a negative log10 scale, so that one unit is a factor of ten. Read a high pKd as a low Kd. As a reminder, the pIC50 is the negative decadic logarithm of the IC50, by convention in mol/L. Read a low pIC50 as a high IC50. The compound `CO[C@H]1[C@H]2OP(=O)(O)OC[C@@]34CO[C@@H]([C@H](n5cnc6c(N)ncnc65)O3)[C@@H]4OS(=O)(=O)NC[C@H]1O[C@H]2n1cnc2c(=O)[nH]c(N)nc21` [Compound 25] showed a pEC50 in test [1] of 7.00. The compound further gave a negative logarithm of the Kd (pKd) in test [2] of 5.46. In test [3], the “human IFN-β (ranking value)” value amounted to 6595 pg/mL. For the same compound, the “In vivo activity (% TGI)” value in test [4] amounted to 88.9%. The compound also showed a pIC50 in test [5] of 4.53.
As for `CO[C@H]1[C@H]2OP(=O)(O)OC[C@H]3O[C@@H](n4cnc5c(N)ncnc54)[C@H](F)[C@@H]3NS(=O)(=O)OC[C@H]1O[C@H]2n1cnc2c(=O)[nH]c(N)nc21` [Compound 6], in test [1], the pEC50 is 6.00. The negative logarithm of the Kd (pKd) in test [2] is 8.92. For the same compound, the “human IFN-β (ranking value)” value in test [3] amounted to 6762 pg/mL. The same compound showed a pIC50 in test [5] of 7.96.
`CO[C@H]1[C@H]2OS(=O)(=O)NC[C@H]3O[C@@H](n4cnc5c(N)ncnc54)[C@H](F)[C@@H]3OP(=O)(O)OC[C@H]1O[C@H]2n1cnc2c(=O)[nH]c(N)nc21` [Compound 1] had a pEC50 in test [1] of 7.11. The pKd in test [2] was 8.92. The “human IFN-β (ranking value)” value in test [3] is 7930 pg/mL. Further, the “In vivo activity (% TGI)” value in test [4] amounted to 108.9%. Also, the “In vivo activity (cures)” value in test [4] (number of animals with no measurable tumor 10 tumor volume doubling times after the last dose) was 6. In test [5], the pIC50 was 8.34.
As for `Nc1ncnc2c1ncn2C1O[C@@H]2CNS(=O)(=O)O[C@H]3C(n4cnc5c(N)ncnc54)O[C@H](COP(=O)(O)O[C@H]2[C@H]1F)[C@H]3O` (stereo partly shown) [Compound 17], the pEC50 in test [1] was 6.60. Besides, the pKd in test [2] was 5.29. Besides, in test [3], the “human IFN-β (ranking value)” value came to 17298 pg/mL. In addition, the pIC50 in test [5] was 4.67.

The values are drawn from patent US20210009630A1, “CYCLIC DINUCLEOTIDES AS STING AGONISTS” (Janssen Biotech, Inc., priority 2017, published 2021).
